The record followed here is US20210038607A1, “OXADIAZOLYLTHIOPHENE DERIVATIVES USEFUL AS HISTONE DEACETYLASE INHIBITORS” (Karus Therapeutics Limited, priority 2018, published 2021).

In test [1] the target is T1, Human HDAC1 (Homo sapiens, UniProt Q13547).
T1 construct: full length with C-terminal His-tag and C-terminal FLAG-tag; His (C); FLAG (C); host or cells: baculovirus expression system
As to the kind of experiment: HDAC1 biochemical assay, AMC-labeled peptide substrate. The conditions noted are these: read-out: HDAC Isoform IC50 (nM) 1. In outline: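 Two-step fluorogenic read: HDAC1 deacetylates 50 μM acetyl-lysine AMC peptide RHKK(Ac)AMC for 1 h at 30° C (pH 8.0, 1% DMSO, with compound), then developer digests the product for fluorescence at Ex/Em 360/460. Enzyme is full-length human, His/FLAG-tagged, insect-cell expressed, at 0.3 ng/ul.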

Test [2] addresses T2, Human HDAC4 (Homo sapiens, UniProt P56524).
T2 construct: amino acids 627-1085 with N-terminal GST tag; GST (N); host or cells: baculovirus expression system
As to the kind of experiment: HDAC4 biochemical assay, class IIa-specific substrate. The settings on record: read-out: HDAC Isoform IC50 (nM) 4. In outline:
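Two-step fluorogenic read-out: deacetylated BOC-Lys(trifluoroacetyl)-AMC (50 μM) was digested by developer and measured at Ex/Em 360/460. Deacetylation by 0.004 ng/ul HDAC4 (aa 627-1085, N-terminal GST) ran 30 min at room temperature, pH 8.0 Tris buffer, 1 mg/mL BSA, 1% DMSO.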

Test [3] has as its target T3, Human HDAC5 (Homo sapiens, UniProt Q9UQL6).
T3 construct: full length with C-terminal His tag, MW=51.1 kDa; His (C); host or cells: baculovirus expression system
As to the kind of experiment: HDAC5 biochemical assay, class IIa-specific substrate. The settings on record: read-out: HDAC Isoform IC50 (nM) 5. In short, it runs like this: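 Two-step fluorogenic read-out: deacetylated trifluoroacetyl-lysine AMC substrate (50 μM) digested by developer, measured at Ex/Em 360/460. Deacetylation step: 0.05 ng/ul His-tagged full-length baculoviral enzyme with compound, 30 min, room temperature, pH 8.0 Tris with 1 mg/mL BSA and 1% DMSO.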

In test [4] the target is T4, Recombinant human HDAC6 (Homo sapiens, UniProt Q9UBN7).
T4 construct: full length, MW=159 kDa; GST (N); host or cells: Sf9 insect cells (baculovirus)
T4 sequence (Q9UBN7 1-1215): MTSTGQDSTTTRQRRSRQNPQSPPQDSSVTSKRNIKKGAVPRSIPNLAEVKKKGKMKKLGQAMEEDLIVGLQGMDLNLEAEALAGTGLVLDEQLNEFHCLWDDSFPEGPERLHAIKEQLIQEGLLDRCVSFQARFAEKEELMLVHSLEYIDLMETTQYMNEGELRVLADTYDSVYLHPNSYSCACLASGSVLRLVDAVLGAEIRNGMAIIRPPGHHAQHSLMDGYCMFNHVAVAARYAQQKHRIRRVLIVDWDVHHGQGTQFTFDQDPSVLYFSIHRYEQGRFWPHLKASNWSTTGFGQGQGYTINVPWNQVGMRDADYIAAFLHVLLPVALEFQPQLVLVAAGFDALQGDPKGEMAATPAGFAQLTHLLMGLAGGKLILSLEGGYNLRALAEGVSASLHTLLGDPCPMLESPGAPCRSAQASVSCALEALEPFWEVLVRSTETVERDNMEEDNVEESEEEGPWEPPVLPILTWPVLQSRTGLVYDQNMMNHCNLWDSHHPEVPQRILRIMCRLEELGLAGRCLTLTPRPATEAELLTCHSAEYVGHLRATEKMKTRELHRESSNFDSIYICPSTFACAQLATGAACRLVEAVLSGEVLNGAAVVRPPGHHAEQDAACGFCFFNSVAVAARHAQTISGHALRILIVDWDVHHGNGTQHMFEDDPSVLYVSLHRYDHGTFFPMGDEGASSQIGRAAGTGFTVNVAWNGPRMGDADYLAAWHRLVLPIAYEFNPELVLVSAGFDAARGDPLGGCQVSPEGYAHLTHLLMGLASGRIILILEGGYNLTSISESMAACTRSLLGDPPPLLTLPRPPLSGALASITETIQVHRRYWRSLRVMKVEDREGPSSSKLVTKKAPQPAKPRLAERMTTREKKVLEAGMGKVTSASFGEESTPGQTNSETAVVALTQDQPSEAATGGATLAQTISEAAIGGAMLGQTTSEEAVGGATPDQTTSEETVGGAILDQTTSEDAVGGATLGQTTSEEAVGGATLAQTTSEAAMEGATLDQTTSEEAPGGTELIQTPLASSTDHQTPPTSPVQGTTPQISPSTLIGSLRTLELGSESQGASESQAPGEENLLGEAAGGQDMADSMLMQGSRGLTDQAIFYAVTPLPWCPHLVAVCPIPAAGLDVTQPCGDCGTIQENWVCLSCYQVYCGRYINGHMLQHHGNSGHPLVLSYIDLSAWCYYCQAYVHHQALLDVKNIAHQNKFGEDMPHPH
The test can be described thus: HDAC6 biochemical assay, AMC-labeled peptide substrate. The settings on record: HDAC6; read-out: HDAC Isoform IC50 (nM) 6. In outline: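 Two-step fluorogenic read-out: enzyme deacetylates 50 μM RHKK(Ac)AMC for 1 h at 30° C in pH 8.0 Tris buffer with BSA and 1% DMSO, then developer cleavage gives signal at Ex 360/Em 460. Enzyme: 0.3 ng/ul recombinant full-length human HDAC6, GST-tagged, Sf9-expressed.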

Test [5] has as its target T5, Human HDAC7 (Homo sapiens, UniProt Q8WUI4).
T5 construct: (a.a. 518-end) with N-terminal GST tag; GST (N); host or cells: baculovirus expression system
T5 sequence (Q8WUI4 518-952 limits assumed): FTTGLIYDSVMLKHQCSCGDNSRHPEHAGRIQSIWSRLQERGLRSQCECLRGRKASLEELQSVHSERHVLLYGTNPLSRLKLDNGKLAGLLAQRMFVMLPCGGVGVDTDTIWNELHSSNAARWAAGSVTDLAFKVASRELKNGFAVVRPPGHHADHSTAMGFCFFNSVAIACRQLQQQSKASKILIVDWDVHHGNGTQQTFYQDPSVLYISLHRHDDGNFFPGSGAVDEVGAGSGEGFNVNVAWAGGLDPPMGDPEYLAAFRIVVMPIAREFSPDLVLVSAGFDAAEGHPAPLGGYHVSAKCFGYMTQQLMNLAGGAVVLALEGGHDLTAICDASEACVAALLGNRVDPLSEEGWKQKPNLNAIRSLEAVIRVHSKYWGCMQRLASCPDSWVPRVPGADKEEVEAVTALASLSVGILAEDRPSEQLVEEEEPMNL
As to the kind of experiment: HDAC7 biochemical assay, class IIa-specific substrate. The conditions noted are these: read-out: HDAC Isoform IC50 (nM) 7. In outline: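 Two-step fluorogenic readout: class IIa-selective trifluoroacetyl-lysine AMC substrate (50 μM) deacetylated by N-terminal GST-HDAC7 fragment (0.001 ng/ul), then digested by developer, Ex/Em 360/460. Reaction: 30 min, room temperature, Tris-HCl pH 8.0, NaCl/KCl/MgCl2, 1 mg/mL BSA, 1% DMSO.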

Test [6] addresses T6, Human HDAC9 (Homo sapiens, UniProt Q9UKV0).
T6 construct: amino acids 604-1066 with C-terminal His tag; His (C); host or cells: baculovirus expression system
As to the kind of experiment: HDAC9 biochemical assay, class IIa-specific substrate. The conditions noted are these: read-out: HDAC Isoform IC50 (nM) 9. In outline:
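HDAC9 residues 604-1066 (C-terminal His tag, baculovirus-expressed) at 0.06 ng/ul with 50 μM class IIa substrate Boc-Lys(trifluoroacetyl)-AMC in Tris-HCl pH 8.0 buffer with BSA and 1% DMSO. 30 min at room temperature, then developer added; fluorescence read at 360/460 nm Ex/Em.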

SMILES strings stand for the structures.

T6 sequence (Q9UKV0 604-1066 isoform Q9UKV0-5): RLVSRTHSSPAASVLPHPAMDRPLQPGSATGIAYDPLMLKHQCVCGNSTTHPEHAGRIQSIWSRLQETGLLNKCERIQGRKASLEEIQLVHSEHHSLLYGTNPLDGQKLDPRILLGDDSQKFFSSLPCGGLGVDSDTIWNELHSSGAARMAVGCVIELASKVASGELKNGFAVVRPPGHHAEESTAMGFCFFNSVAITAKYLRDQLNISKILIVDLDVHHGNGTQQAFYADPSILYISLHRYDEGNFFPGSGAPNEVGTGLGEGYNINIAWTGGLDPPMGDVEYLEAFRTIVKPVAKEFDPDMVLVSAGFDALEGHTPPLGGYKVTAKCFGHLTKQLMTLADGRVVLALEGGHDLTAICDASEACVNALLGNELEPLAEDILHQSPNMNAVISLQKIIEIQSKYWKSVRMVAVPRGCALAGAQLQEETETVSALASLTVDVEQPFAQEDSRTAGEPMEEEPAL
T2 sequence (P56524 627-1084 limits assumed): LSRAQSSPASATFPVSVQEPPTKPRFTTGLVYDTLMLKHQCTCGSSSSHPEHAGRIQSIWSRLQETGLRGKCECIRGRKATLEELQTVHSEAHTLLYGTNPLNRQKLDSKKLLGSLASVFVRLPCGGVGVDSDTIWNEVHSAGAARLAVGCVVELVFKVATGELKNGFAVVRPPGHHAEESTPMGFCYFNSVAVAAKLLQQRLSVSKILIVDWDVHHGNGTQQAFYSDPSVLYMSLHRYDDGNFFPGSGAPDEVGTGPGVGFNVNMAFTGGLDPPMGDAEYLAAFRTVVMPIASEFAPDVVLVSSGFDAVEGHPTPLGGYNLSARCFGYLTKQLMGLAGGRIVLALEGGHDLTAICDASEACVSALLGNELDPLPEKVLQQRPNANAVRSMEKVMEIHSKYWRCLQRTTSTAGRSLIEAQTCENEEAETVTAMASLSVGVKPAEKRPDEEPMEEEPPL
T3 sequence (Q9UQL6 656-1122 limits assumed): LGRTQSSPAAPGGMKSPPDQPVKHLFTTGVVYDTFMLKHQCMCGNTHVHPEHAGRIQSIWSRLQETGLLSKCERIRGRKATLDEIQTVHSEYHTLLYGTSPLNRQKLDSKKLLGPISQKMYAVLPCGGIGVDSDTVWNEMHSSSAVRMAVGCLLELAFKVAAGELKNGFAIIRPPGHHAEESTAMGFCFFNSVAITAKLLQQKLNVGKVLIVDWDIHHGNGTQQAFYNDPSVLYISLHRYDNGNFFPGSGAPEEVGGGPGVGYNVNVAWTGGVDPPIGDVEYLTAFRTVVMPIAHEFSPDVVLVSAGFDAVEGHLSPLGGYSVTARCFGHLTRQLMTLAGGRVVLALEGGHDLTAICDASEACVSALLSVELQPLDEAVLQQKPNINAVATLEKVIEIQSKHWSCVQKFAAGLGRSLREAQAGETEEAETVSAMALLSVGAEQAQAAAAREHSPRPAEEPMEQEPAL
T1 sequence (Q13547 whole entry): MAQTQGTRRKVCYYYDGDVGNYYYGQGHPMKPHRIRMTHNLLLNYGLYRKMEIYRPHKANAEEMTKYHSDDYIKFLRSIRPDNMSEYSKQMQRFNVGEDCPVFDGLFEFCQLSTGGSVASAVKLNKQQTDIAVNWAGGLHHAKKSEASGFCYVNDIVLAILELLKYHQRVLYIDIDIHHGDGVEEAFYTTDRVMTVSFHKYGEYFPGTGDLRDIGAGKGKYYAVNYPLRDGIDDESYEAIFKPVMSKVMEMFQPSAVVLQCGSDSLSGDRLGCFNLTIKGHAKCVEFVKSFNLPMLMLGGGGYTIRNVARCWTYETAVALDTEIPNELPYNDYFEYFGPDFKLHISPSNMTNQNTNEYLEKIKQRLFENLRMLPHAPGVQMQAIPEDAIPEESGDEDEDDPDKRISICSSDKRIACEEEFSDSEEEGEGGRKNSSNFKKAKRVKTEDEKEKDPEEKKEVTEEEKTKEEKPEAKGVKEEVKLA

Usually IC50 stands for the concentration at which inhibition is half-maximal. Consider `Cc1ncc(N(Cc2ccc(-c3noc(C(F)(F)F)n3)s2)c2cnccn2)c(C)n1` [Example DB, 2,4-Dimethyl-N-(pyrazin-2-yl)-N-({5-[5-(trifluoromethyl)-1,2,4-oxadiazol-3-yl]thiophen-2-yl}methyl)pyrimidin-5-amine], for which the IC50 in test [1] is greater than 10000 nM; in test [2], no more than 500 nM; in test [3] it was no more than 500 nM; in test [4], no more than 10000 nM; in test [5] it was no more than 1000 nM; in test [6] it was no more than 1000 nM.

For `Cc1ncnc(C)c1N(Cc1ccc(-c2noc(C(F)(F)F)n2)s1)c1cnccn1` [Example DC, 4,6-Dimethyl-N-(pyrazin-2-yl)-N-({5-[5-(trifluoromethyl)-1,2,4-oxadiazol-3-yl]thiophen-2-yl}methyl)pyrimidin-5-amine], the half-inhibitory concentration (IC50) is greater than 10000 nM in test [1]; no more than 500 nM in test [2]; no more than 500 nM in test [3]; no more than 10000 nM in test [4]; no more than 500 nM in test [5]; no more than 1000 nM in test [6].

Regarding `FC(F)(F)c1nc(-c2ccc(CN(c3cnccn3)c3cccnn3)s2)no1` [Example DD, N-(Pyrazin-2-yl)-N-({5-[5-(trifluoromethyl)-1,2,4-oxadiazol-3-yl]thiophen-2-yl}methyl)pyridazin-3-amine], the IC50 in test [1] was greater than 10000 nM; in test [2] it was no more than 1000 nM; in test [3] it was no more than 10000 nM; in test [4], no more than 10000 nM; in test [5], no more than 10000 nM; in test [6] it was no more than 10000 nM.

`FC(F)(F)c1nc(-c2ccc(CN(c3cnccn3)c3nccnn3)s2)no1` [Example DE, N-(Pyrazin-2-yl)-N-({5-[5-(trifluoromethyl)-1,2,4-oxadiazol-3-yl]thiophen-2-yl}methyl)-1,2,4-triazin-3-amine]: the IC50 in test [1] was greater than 10000 nM; in test [2], no more than 1000 nM; in test [3], no more than 1000 nM; in test [4], no more than 1000 nM; in test [5], no more than 1000 nM; in test [6], no more than 10000 nM.

With `Cc1ccc(N(Cc2ccc(-c3noc(C(F)(F)F)n3)s2)c2cnccn2)nn1` [Example DF, 6-Methyl-N-(pyrazin-2-yl)-N-({5-[5-(trifluoromethyl)-1,2,4-oxadiazol-3-yl]thiophen-2-yl}methyl)pyridazin-3-amine], the IC50 in test [1] was greater than 10000 nM; in test [2], no more than 10000 nM; in test [3] it was no more than 10000 nM; in test [4], no more than 10000 nM; in test [5], no more than 10000 nM; in test [6], no more than 10000 nM.

`COc1ccc(N(Cc2ccc(-c3noc(C(F)(F)F)n3)s2)c2cnccn2)nn1` [Example DG, 6-Methoxy-N-(pyrazin-2-yl)-N-({5-[5-(trifluoromethyl)-1,2,4-oxadiazol-3-yl]thiophen-2-yl}methyl)pyridazin-3-amine]: the IC50 in test [1] was greater than 10000 nM; in test [2], no more than 1000 nM; in test [3] it was no more than 1000 nM; in test [4], no more than 1000 nM; in test [5], no more than 10000 nM; in test [6] it was no more than 10000 nM.

With `FC(F)(F)c1nc(-c2ccc(CN(c3cnccn3)c3ccc(N4CCOCC4)nn3)s2)no1` [Example DJ, 6-(Morpholin-4-yl)-N-(pyrazin-2-yl)-N-({5-[5-(trifluoromethyl)-1,2,4-oxadiazol-3-yl]thiophen-2-yl}methyl)pyridazin-3-amine], the IC50 is greater than 10000 nM in test [1]; no more than 10000 nM in test [2]; no more than 1000 nM in test [3]; no more than 500 nM in test [4]; no more than 10000 nM in test [5]; no more than 10000 nM in test [6].

With `CN1CCN(c2ccc(N(Cc3ccc(-c4noc(C(F)(F)F)n4)s3)c3cnccn3)nn2)CC1` [Example DK, 6-(4-Methylpiperazin-1-yl)-N-(pyrazin-2-yl)-N-({5-[5-(trifluoromethyl)-1,2,4-oxadiazol-3-yl]thiophen-2-yl}methyl)pyridazin-3-amine], the IC50 in test [1] was no more than 10000 nM; in test [2] it was no more than 500 nM; in test [3], no more than 500 nM; in test [4], no more than 500 nM; in test [5] it was no more than 500 nM; in test [6] it was no more than 10000 nM.

Consider `FC(F)(F)c1nc(-c2ccc(CN(c3cnccn3)c3ccc(-n4cccn4)nn3)s2)no1` [Example DM, N-(Pyrazin-2-yl)-6-(1H-pyrazol-1-yl)-N-({5-[5-(trifluoromethyl)-1,2,4-oxadiazol-3-yl]thiophen-2-yl}methyl)pyridazin-3-amine], for which the IC50 in test [1] was no more than 10000 nM; in test [2], no more than 500 nM; in test [3], no more than 1000 nM; in test [4], no more than 1000 nM; in test [5] it was no more than 1000 nM; in test [6], no more than 1000 nM.

As for `FC(F)(F)c1nc(-c2ccc(CN(c3cnccn3)c3ccc(-c4ccccc4)nn3)s2)no1` [Example DN, 6-Phenyl-N-(pyrazin-2-yl)-N-({5-[5-(trifluoromethyl)-1,2,4-oxadiazol-3-yl]thiophen-2-yl}methyl)pyridazin-3-amine], the IC50 in test [1] is no more than 10000 nM; in test [2], no more than 1000 nM; in test [3], no more than 500 nM; in test [4], no more than 500 nM; in test [5], no more than 500 nM; in test [6] it was no more than 10000 nM.
